Assay results: ChEMBL document CHEMBL1147183, “Design, synthesis, and evaluation of non-steroidal farnesoid X receptor (FXR) antagonist” (Bioorg Med Chem, 2007)
Activity calls are given as the source filed them. The rule behind the calls is not given here.

What was measured:
[1] = biological target: T1, Bile acid receptor (Homo sapiens) (UniProt Q96RI1); experiment: Agonistic activity at FXR in HEK293 cells at 100 uM by GAL4 transactivation activity; type: functional, cell-based
T1 sequence (whole entry): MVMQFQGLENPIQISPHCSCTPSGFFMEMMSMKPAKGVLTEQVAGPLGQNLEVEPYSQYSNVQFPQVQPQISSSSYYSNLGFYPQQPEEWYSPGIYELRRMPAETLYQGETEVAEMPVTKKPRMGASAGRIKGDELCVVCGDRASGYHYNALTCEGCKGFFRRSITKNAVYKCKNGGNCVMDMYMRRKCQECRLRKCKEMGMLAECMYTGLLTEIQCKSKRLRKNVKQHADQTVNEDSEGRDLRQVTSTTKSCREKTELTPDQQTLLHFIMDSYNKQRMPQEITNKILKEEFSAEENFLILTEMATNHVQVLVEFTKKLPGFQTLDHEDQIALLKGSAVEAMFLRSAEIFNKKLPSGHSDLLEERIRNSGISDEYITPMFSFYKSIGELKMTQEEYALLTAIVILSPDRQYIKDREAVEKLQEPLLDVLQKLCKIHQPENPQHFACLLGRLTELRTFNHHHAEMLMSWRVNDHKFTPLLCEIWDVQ

[2] = biological target: T2, Bile acid receptor (Homo sapiens, UniProt Q96RI1); experiment: Agonistic activity at FXR in HEK293 cells by GAL4 transactivation activity; type: functional, cell-based
T2 sequence (Q96RI1 whole entry): T1 sequence (whole entry)

[3] = biological target: T2, Bile acid receptor; experiment: Inhibition of FXR in HEK293 cells in presence of CDCA by GAL4 transactivation activity; type: cell-based
[4] = biological target: T1, Bile acid receptor (Homo sapiens); experiment: Activity at FXR assessed by ligand-induced co-repressor recruitment by two-hybrid assay system
[5] = biological target: T3, Progesterone receptor (Homo sapiens) (UniProt P06401); experiment: Activity against PR by transactivation activity at 30 uM
T3 sequence (whole entry): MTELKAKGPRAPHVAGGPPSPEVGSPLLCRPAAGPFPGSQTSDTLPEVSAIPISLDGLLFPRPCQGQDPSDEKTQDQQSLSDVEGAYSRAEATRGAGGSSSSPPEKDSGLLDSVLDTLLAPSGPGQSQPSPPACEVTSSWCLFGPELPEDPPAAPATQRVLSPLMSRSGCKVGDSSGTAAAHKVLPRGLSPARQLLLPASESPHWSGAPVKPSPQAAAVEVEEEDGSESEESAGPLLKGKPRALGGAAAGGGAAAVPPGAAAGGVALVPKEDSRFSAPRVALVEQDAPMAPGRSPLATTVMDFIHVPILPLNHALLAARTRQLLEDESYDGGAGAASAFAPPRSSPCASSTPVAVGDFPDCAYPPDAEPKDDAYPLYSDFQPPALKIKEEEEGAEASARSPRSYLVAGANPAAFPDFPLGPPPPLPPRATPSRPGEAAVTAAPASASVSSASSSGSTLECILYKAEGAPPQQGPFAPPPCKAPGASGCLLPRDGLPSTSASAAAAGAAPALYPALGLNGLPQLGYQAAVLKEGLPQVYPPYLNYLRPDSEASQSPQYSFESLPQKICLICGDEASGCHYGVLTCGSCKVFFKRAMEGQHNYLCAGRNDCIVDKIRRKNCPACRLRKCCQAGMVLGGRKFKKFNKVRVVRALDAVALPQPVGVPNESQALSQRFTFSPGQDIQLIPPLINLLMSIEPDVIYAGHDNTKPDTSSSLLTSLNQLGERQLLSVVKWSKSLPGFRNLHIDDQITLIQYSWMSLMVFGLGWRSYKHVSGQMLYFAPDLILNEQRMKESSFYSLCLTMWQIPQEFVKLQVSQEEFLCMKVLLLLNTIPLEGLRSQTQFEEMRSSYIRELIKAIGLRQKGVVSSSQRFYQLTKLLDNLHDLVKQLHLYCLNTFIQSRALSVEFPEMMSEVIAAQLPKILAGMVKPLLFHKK

Row | Activity [1] | EC50 [2] [µM] | also measured | SMILES
1 | inactive |  |  | CC(C)c1onc(-c2ccc3ccccc3c2)c1COc1ccc(/C=C/c2cccc(C(=O)O)c2)c(Cl)c1
2 |  | 2.1 |  | CCCN(C(=O)c1ccc(OCc2c(-c3c(Cl)cccc3Cl)noc2C(C)C)cc1Cl)c1cccc(C(=O)O)c1
3 | inactive |  | IC50 [3]: 22.2 µM | O=C(O)c1cccc(/C=C/c2ccc(OCc3c(-c4c(Cl)cccc4Cl)noc3-c3ccc4ccccc4c3)cc2Cl)c1
4 |  | 0.84 |  | CC(C)c1onc(-c2c(Cl)cccc2Cl)c1COc1ccc(C(=O)N(CCc2ccccc2)c2cccc(C(=O)O)c2)c(Cl)c1
5 | inactive |  | Activity [4]: inactive | C/C=C1\C(=O)C[C@H]2[C@@H]3CCC4=CC(=O)CC[C@]4(C)[C@H]3CC[C@]12C
6 | inactive |  | IC50 [3]: 33.9 µM | O=C(O)c1cccc(/C=C/c2ccc(OCc3c(-c4c(Cl)cccc4Cl)noc3-c3ccc(-c4ccccc4)cc3)cc2Cl)c1
7 |  | 1.3 |  | CC(C)(C)c1onc(-c2c(Cl)cccc2Cl)c1COc1ccc(/C=C/c2cccc(C(=O)O)c2)c(Cl)c1
8 |  | 3.1 |  | CC(C)c1onc(-c2c(Cl)cccc2Cl)c1COc1ccc(C(=O)N(C)c2cccc(C(=O)O)c2)c(Cl)c1
9 | inactive |  | IC50 [3]: 3.7 µM; Activity [5]: Active | O=C(O)c1cccc(NC(=O)c2ccc(OCc3c(-c4c(Cl)cccc4Cl)noc3-c3ccc(-c4ccccc4)cc3)cc2Cl)c1
10 | inactive |  |  | CC(C)c1onc(-c2ccc(-c3ccccc3)cc2)c1COc1ccc(/C=C/c2cccc(C(=O)O)c2)c(Cl)c1
11 |  | 35.1 |  | CC(C)c1onc(-c2c(Cl)cccc2Cl)c1COc1ccc(/C=C/c2cccc(C(=O)N(Cc3ccccc3)Cc3ccccc3)c2)c(Cl)c1
12 | inactive |  | IC50 [3]: 4 µM; Activity [5]: inactive; Activity [4]: inactive | O=C(O)c1cccc(NC(=O)c2ccc(OCc3c(-c4c(Cl)cccc4Cl)noc3-c3ccc4ccccc4c3)cc2Cl)c1
13 |  | 1.3 |  | CC(C)(C)c1onc(-c2c(Cl)cccc2Cl)c1COc1ccc(C(=O)Nc2cccc(C(=O)O)c2)c(Cl)c1
14 |  | 9 |  | CCCNC(=O)c1cccc(/C=C/c2ccc(OCc3c(-c4c(Cl)cccc4Cl)noc3C(C)C)cc2Cl)c1
15 | inactive |  | IC50 [3]: 15.8 µM | O=C(O)c1cccc(/C=C/c2ccc(OCc3c(-c4c(Cl)cccc4Cl)noc3-c3ccccc3)cc2Cl)c1
16 |  | 3 |  | CC(C)c1onc(-c2c(Cl)cccc2Cl)c1COc1ccc(C(=O)Nc2cccc(C(=O)O)c2)c(Cl)c1
17 |  | 2.5 |  | CC(C)c1onc(-c2c(Cl)cccc2Cl)c1COc1ccc(C(=O)N(Cc2ccccc2)c2cccc(C(=O)O)c2)c(Cl)c1
